# Patent US20100015603A1, “Chimeric proteins for measuring atp concentrations in pericellular space and related screening method” (priority 2005, published 2010)
# Tests used:
# Assay type in all cases: cell-based
# [1] = target: T1, pmeLUC (Photinus pyralis, UniProt P08659, N119G/N50D); assay: Response of HEK293-pmeLUC cells to extracellular nucleotides (affinity and selectivity of the pmeLUC probe, luminescence); details: for sensitivity of pmeLUC to other nucleotides: HEK293-pmeLUC cells, FIG. 2A
# T1 construct: expressed in transfected cells
# Experimental: (§1) ATP was measured in the custom-made luminometer described by Rizzuto and co-workers (Brini et al., 1999; Jouaville et al., 1999). For experiments, cells were plated onto 13 mm coverslips and were placed in a 37° C. thermostatted chamber (diameter 15 mm, height 2 mm) and perfused with a saline solution supplemented with luciferin at a concentration of 5 μM. The chamber was held in a photomultiplier kept in a dark refrigerated (4° C.) box. Light emission was detected by a Thorn EMI photon counting board installed in an IBM-compatible computer. The board allowed storing of the data in the computer memory for further analysis. During the experiments the thermostatted chamber was continuously perfused with buffer by means of a Gilson peristaltic pump. Alternatively, ATP was measured in the supernatants using soluble luciferase in a Firezyme luminometer as previously described (Baricordi et al., 1999; Solini et al, 2004; Zanovello et al., 1990).
# Affinity of pmeLUC for ATP is rather low, with a threshold of about 10 μM, however, subsequent ATP additions elicit further increases in light emission that allow building a calibration curve (FIG. 2B). Importantly, pmeLUC is insensitive to all other nucleotides tested (ADP, UTP, UDP and GTP) (FIG. 2A).
# [2] = tested on: HEK293-pmeLUC cells; details: HEK293-pmeLUC cells, not shown
# Experimental: (§2) HEK293 cells were cultured in DMEM-F12 (Sigma-Aldrich). Media were supplemented with 10% heat-inactivated FBS, 100 U/ml penicillin and 100 μg/ml streptomycin (Invitrogen corporation, San Giuliano Milanese, Italy). ACN neuroblastoma cells were cultured in DMEM supplemented with MEM non-essential amino acid solution 100× (Sigma-Aldrich). HEK293 cells were transfected with the calcium phosphate method. Cells transiently expressing the pmeLUC construct were assayed 36 hours after transfection. Clones stably expressing pmeLUC or the P2X7R were generated by culture of the transfected cells in the presence of G418 (0.8 mg/ml, added 48 hours after transfection) for 3 weeks. Stable P2X7- or pmeLUC-expressing clones were kept in the continuous presence of 0.2 mg/ml of G418 sulphate (Geneticin) (Calbiochem, la Jolla, Calif.). ACN cells were transfected with pmeLUC by lipofectamine (Invitrogen) and tested 24 hours after transfection. Briefly, cells were incubated in 250 μl serum-free transfection medium (OPTIMEM) in the presence of lipofectamine-plus-DNA (0.4 μg per well). After 3 hours incubation 1 ml of DMEM plus 10% FBS supplemented with MEM non-essential amino acid solution 100× (Sigma-Aldrich) was added. Cells were assayed 24 hours after transfection. In order to allow a high level of plasma membrane expression of the transfected constructs, cells were incubated overnight in the presence of 1 mM DTT (Mezghrani et al, 2001). Furthermore, they were also kept at room temperature (21° C.) for two hours prior to transfer into the thermostated luminometer chamber.
# (§3) ATP was measured in the custom-made luminometer described by Rizzuto and co-workers (Brini et al., 1999; Jouaville et al., 1999). […] Light emission was detected by a Thorn EMI photon counting board installed in an IBM-compatible computer. […] Alternatively, ATP was measured in the supernatants using soluble luciferase in a Firezyme luminometer as previously described (Baricordi et al., 1999; Solini et al, 2004; Zanovello et al., 1990).
# [3] = target: T2, human P2X7R (Homo sapiens, UniProt Q99572); assay: ATP release through the P2X7 receptor in HEK293-hP2X7/pmeLUC cells, pmeLUC luminescence; details: HEK293-hP2X7/pmeLUC
# T2 construct: expressed in transfected cells; host or cells: HEK293 (HEK293-hP2X7/pmeLUC)
# T2 sequence (Q99572 1-595): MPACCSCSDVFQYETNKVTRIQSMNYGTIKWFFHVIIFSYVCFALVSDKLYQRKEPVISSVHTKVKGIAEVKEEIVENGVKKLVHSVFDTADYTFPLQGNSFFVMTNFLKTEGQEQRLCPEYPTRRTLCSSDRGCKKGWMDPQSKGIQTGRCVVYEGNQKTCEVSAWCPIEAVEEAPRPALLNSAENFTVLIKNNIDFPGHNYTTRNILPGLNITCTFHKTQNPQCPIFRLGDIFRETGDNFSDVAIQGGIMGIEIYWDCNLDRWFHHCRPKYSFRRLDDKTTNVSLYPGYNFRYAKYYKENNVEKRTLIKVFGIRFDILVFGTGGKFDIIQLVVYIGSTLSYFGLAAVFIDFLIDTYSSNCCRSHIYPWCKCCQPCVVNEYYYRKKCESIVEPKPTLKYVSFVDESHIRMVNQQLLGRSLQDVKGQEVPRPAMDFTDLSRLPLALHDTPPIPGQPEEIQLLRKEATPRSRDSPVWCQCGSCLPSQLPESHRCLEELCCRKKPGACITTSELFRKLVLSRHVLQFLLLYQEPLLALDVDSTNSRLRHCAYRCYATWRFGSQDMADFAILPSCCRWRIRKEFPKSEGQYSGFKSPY
# Experimental: as §2, §1
# Early experiments carried out not only by the authors of the present invention had shown that supernatants from cells expressing the P2X7 receptor contained a high level of ATP, which was not due to an accelerated rate of cell lysis (Baricordi et al., 1999; Adinolfi et al., 2003; Solini et al., 2004). […] To test such hypothesis several HEK293 clones were generated stably transfected with the human or rat P2X7R (HEK293-hP2X7 or HEK293-rP2X7, respectively). These clones were then transfected with pmeLUC (HEK293-P2X7/pmeLUC).
# [4] = target: T3, native P2X7R (Homo sapiens, UniProt Q99572); assay: ATP release from ACN neuroblastoma cells transfected with pmeLUC; details: ACN cells
# T3 construct: the human ACN neuroblastoma, a cell line expressing the native P2X7R; endogenous in cells; host or cells: ACN human neuroblastoma cells, transiently transfected with pmeLUC as sensor
# T3 sequence (Q99572 1-595): T2 sequence (Q99572 1-595)
# Experimental: HEK293 cells were cultured in DMEM-F12 (Sigma-Aldrich). Media were supplemented with 10% heat-inactivated FBS, 100 U/ml penicillin and 100 μg/ml streptomycin (Invitrogen corporation, San Giuliano Milanese, Italy). ACN neuroblastoma cells were cultured in DMEM supplemented with MEM non-essential amino acid solution 100× (Sigma-Aldrich). HEK293 cells were transfected with the calcium phosphate method. Cells transiently expressing the pmeLUC construct were assayed 36 hours after transfection. Clones stably expressing pmeLUC or the P2X7R were generated by culture of the transfected cells in the presence of G418 (0.8 mg/ml, added 48 hours after transfection) for 3 weeks. Stable P2X7- or pmeLUC-expressing clones were kept in the continuous presence of 0.2 mg/ml of G418 sulphate (Geneticin) (Calbiochem, la Jolla, Calif.). ACN cells were transfected with pmeLUC by lipofectamine (Invitrogen) and tested 24 hours after transfection. […]
# as §3
# Differences in basal levels of luminescence emission are neutralized by expressing luminescence as percentage increase over basal (FIG. 3B), however, the higher basal luminescence of HEK293-hP2X7/pmeLUC might reflect a real increased level of pericellular ATP compared to HEK293-pmeLUC, rather than a higher expression of pmeLUC. In this case, reporting luminescence as percent increase over basal would mask such a difference in the extracellular ATP concentration. To clarify this issue, total pmeLUC protein was measured by western blotting (FIG. 3C). […] To measure quantitatively surface pmeLUC expression, different clones were analyzed by FACS. […]
# [5] = target: T4, rat P2X7R (Rattus norvegicus, UniProt Q64663); assay: ATP release through the P2X7 receptor in HEK293-rP2X7/pmeLUC cells, pmeLUC luminescence; details: HEK293-rP2X7/pmeLUC, pre-treatment with oATP, FIG. 4A
# T4 construct: expressed in transfected cells; host or cells: HEK293 (HEK293-rP2X7/pmeLUC)
# T4 sequence (Q64663 1-595): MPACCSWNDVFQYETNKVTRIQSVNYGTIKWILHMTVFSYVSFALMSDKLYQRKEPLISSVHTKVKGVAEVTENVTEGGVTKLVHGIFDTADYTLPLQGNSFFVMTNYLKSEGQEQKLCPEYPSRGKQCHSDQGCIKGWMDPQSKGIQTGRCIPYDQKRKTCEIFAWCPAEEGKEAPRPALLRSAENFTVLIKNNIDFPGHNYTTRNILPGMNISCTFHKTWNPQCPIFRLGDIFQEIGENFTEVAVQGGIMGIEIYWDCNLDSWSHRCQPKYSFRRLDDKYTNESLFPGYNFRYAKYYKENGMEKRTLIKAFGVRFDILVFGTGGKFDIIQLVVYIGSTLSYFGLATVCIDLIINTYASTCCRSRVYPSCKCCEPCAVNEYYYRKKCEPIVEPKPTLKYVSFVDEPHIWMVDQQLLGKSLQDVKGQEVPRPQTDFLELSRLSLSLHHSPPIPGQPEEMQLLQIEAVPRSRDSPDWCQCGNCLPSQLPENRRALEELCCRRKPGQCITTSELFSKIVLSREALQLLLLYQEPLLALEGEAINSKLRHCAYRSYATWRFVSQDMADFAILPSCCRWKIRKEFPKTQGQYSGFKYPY
# Experimental: as §2
# as §3, with “1990). […]” for “1990).”
# T1 sequence (P08659 with tags, fused parts or gaps N50D/N119G): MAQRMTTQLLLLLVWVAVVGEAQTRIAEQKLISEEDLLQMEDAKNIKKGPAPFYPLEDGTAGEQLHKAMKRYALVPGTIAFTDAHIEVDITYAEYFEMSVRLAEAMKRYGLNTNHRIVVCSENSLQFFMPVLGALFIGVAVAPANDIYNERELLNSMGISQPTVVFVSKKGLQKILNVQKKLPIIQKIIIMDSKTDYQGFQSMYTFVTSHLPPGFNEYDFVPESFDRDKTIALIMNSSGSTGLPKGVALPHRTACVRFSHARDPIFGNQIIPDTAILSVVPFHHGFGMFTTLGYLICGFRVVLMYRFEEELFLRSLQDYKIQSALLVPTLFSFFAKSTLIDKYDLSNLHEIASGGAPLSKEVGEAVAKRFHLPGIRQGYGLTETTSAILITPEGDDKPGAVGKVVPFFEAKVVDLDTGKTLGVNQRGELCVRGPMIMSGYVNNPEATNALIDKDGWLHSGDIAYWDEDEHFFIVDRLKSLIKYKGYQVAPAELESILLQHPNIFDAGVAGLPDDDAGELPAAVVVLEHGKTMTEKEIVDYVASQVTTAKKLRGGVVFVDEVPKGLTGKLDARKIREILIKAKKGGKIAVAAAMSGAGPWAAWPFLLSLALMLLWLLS
smiles,measurement,setting,value
O=c1ccn([C@@H]2O[C@H](COP(=O)(O)OP(=O)(O)O)[C@@H](O)[C@H]2O)c(=O)[nH]1 [UDP],sensitivity of pmeLUC to other nucleotides,[1],insensitive
O=c1ccn([C@@H]2O[C@H](COP(=O)(O)OP(=O)(O)OP(=O)(O)O)[C@@H](O)[C@H]2O)c(=O)[nH]1 [UTP],sensitivity of pmeLUC to other nucleotides,[1],insensitive
C[N+](C)(C)CCOC(N)=O [carbachol],ATP release triggered by agonists of G protein-coupled receptors,[2],negligible ATP release
NCCc1c[nH]cn1 [histamine],ATP release triggered by agonists of G protein-coupled receptors,[2],negligible ATP release
"Nc1ncnc2c1ncn2[C@@H](C=O)O[C@@H](C=O)COP(=O)(O)OP(=O)(O)OP(=O)(O)O [oATP, oxidized ATP]",basal luminescence after oATP pretreatment,"[3]; n=8, untreated 12250±1500 cps",5800±1300 cps
same,ATP-induced luminescence increase in oATP-treated cells,"[3]; pre-treatment with oATP, FIG. 4B",matches exactly that of HEK293-pmeLUC
same,block of the BzATP-triggered luminescence increase,[3]; pre-treatment with 300 μM oATP for 2 hours,fully blocked
same,block of BzATP-induced ATP release,[4]; 300 μM oATP,fully blocked
same,basal luminescence total level after treatment with oATP,"[4]; n=5, before treatment 3500±350 cps",1500±260 cps
same,effect on ATP-dependent luminescence increase (calibration curve; inhibition of luciferase itself),"[1]; calibration curve in presence and absence of oATP, not shown",not affected
same,ATP-induced luminescence increase in oATP-treated cells,[5],matches exactly that of HEK293-pmeLUC
